From publication PMC11788587, “Validating Low‐Dose Iohexol as a Marker for Glomerular Filtration Rate by In Vitro and In Vivo Studies” (Clinical and Translational Science, 2025) come the findings set out here.

In data set [1] the target is T1, hOCT1 (Homo sapiens, UniProt O15245).
T1 construct: expressed in transfected cells; host or cells: HEK-293 (293) cells, pEBTetD plasmid, doxycycline-induced
T1 sequence (O15245 1-554): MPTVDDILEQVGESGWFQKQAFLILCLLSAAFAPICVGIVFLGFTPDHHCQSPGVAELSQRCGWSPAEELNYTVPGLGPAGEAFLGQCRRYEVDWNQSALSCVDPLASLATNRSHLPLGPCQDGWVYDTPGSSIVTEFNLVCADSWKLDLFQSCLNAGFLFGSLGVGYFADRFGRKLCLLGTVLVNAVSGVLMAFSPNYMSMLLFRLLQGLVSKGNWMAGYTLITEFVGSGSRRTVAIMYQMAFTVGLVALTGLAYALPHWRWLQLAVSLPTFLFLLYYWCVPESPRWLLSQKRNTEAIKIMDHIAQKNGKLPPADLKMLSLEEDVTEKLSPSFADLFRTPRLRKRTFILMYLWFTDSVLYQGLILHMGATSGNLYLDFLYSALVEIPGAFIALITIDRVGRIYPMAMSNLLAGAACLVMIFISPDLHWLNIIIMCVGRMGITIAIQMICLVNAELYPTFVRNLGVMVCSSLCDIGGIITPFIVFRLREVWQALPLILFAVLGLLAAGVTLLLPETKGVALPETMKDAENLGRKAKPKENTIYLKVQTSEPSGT
The data set is described as follows: Inhibition of hOCT1-mediated metformin uptake, stably transfected 293 cells. The conditions noted are these: substrate 50 µM metformin, median (95% CI). It counts as cell-based. The text has this:
(§1) We characterized the inhibitory potential of iohexol on major drug transporters recommended by regulatory agencies, which were previously assessed in a clinical transporter phenotyping cocktail study. These transporters include hOAT1, hOAT3, hOCT1, hOCT2, hMATE1, hMATE2K, human organic anion transporter polypeptides (hOATP)1B1, hOATP1B3, and human multidrug resistance protein (hMDR)1. Additionally, we investigated whether iohexol is a substrate for any of the renal transporters among these, including hOAT1/3, hOCT1/2, and hMATE1/2K. Cell‐based uptake assays were used to assess the activities of hOAT1/3, hOCT1/2, hMATE1/2K, and hOATP1B1/1B3. Inside‐out membrane vesicle uptake assays were used to evaluate the activity of hMDR1.
To determine the maximal inhibitory potential of iohexol, intracellular accumulation of a standard substrate was measured with and without the clinically relevant highest concentrations of iohexol. Control inhibitors were tested in each experiment.
In all subsequent in vitro studies, control experiments were conducted to validate the results. These included positive controls for substrates and inhibitors, as well as cells either without transporter expression or transfected with an empty vector, and control vesicles. Each condition, including cells or vesicles with the transporter and their respective controls, was analyzed in at least three replicates. For detailed information on materials, methods, and data analysis techniques used, refer to the Supporting Information. […]
(§2) R version 4.2.1 (R Foundation for Statistical Computing, Vienna, Austria) was used for statistical evaluations and data visualization. The data analysis approach for the in vitro study was detailed by Hsin CH et al..^1 In brief, for transport assays, the initial uptake rate was calculated by normalizing the substrate concentration to both the protein concentration and the incubation time for each dish or well. The transporter-mediated uptake rate (net uptake) was determined by performing an element-wise subtraction of uptake rates from different conditions. […]

Data set [2] concerns the target T2, hOCT2 (Homo sapiens, UniProt O15244).
T2 construct: expressed in transfected cells; host or cells: HEK-293 (293) cells, pEBTetD plasmid, doxycycline-induced
T2 sequence (O15244 1-555): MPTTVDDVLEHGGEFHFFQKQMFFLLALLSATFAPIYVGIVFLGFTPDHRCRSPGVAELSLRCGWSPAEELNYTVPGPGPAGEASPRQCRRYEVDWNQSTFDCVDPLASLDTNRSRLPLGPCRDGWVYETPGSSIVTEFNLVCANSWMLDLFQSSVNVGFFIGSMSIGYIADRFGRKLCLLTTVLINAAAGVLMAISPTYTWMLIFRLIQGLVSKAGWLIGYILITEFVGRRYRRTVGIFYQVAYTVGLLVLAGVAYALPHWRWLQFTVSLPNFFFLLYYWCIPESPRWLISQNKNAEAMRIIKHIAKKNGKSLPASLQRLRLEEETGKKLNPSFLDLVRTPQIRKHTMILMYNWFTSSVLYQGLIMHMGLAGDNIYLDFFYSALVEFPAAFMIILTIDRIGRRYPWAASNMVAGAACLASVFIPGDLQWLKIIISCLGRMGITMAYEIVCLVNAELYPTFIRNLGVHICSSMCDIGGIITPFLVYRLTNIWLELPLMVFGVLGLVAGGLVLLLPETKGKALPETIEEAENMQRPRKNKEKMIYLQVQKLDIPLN
Description: Substrate assessment: iohexol uptake in 293 cells expressing hOCT2 vs control. The class given is in vitro ADME. The settings on record: 10 μM iohexol, median (95% CI).
Description: as §1
For substrate assessments, iohexol was incubated with stably transfected HEK‐293 cells expressing one of the following transporters: hOAT1, hOAT3, hOCT1, hOCT2, hMATE1, or hMATE2K, as well as with control cells lacking transporter expression. Stably transfected cell lines containing pEBTetD plasmids with wild‐type human transporter cDNAs were generated as previously described. Transporter expression was induced by adding 1 μg/mL doxycycline to the growth medium for at least 20 h. Iohexol would be considered a substrate for these transporters if: (1) the ratio of iohexol uptake in cells expressing the transporter to that in control cells was ≥ 2, and (2) a known inhibitor of the transporter reduced iohexol uptake to ≤ 50% at concentrations ≥ 10 times its inhibition constant or half‐maximal inhibitory concentration.
Uptake assays were performed using stably transfected 293 cells, with or without the expression of one of the following transporters: hOAT1, hOAT3, hOCT1, hOCT2, hMATE1, or hMATE2K, as previously described.^1
For the substrate assessment, cells were incubated with 10 µM iohexol for 10 minutes and 30 minutes for each transporter. Inhibition assays were performed using specific standard substrates for each transporter: 10 µM para-aminohippuric acid (PAH) for hOAT1, 3 µM estrone-3-sulfate (E3S) for hOAT3, 50 µM metformin for hOCT1, 5 µM metformin for hOCT2, and 3 µM 1-methyl-4-phenylpyridinium (MPP+) for hMATE1 and hMATE2K. […]
as §2

As for `CC(=O)N(CC(O)CO)c1c(I)c(C(=O)NCC(O)CO)c(I)c(C(=O)NCC(O)CO)c1I` (stereo not shown) [iohexol], the “Inhibitory effect (% reduction of specific activity)” value in data set [1] (20 mM iohexol) was “no notable inhibitory effects”. The inhibition at 1000 µM in data set [1] (HEK293, 1 mM iohexol, read-out: Inhibitory effect (% reduction of specific activity)) was -9.8%. Besides, the inhibition at 20000 µM in data set [1] (HEK293, 20 mM iohexol, read-out: Inhibitory effect (% reduction of specific activity)) is -22%. Moreover, the “Differences in intracellular accumulation (expression on minus off)” value in data set [2] (10 minutes) is on record as 1.3 (0.007 to 2.6) pmol/mg protein; in data set [2] (30 minutes) it was 1.5 (-1.4 to 2.9) pmol/mg protein. Besides, the “Uptake ratio (transporter-expressing vs non-expressing cells)” value is 1.1 (1 to 1.2) in data set [2] (10 minutes) and 1.1 (0.9 to 1.3) in data set [2] (30 minutes).
